Results: ChEMBL document CHEMBL3885861, “Open TG-GATES”

Organism: Rattus norvegicus
Test: Open TG-GATES - Regimen: Single
Assay type: toxicity, organism-based, Sprague-Dawley
Design: regimen Single, gender Male, age 6 weeks
Conditions: in vivo, po, route gavage; for TP / gamma-GTP / ALT / AST / BUN / CRE / DBIL / GLC / IP / K / LDH / RALB / TBIL / TC / ALP / PL: tissue Plasma; for APTT / Bas / Eos / Fbg / Ht / Lym / MCHC / MCV / Mono / PT / Plat / RBC / Ret / WBC: tissue Blood; for KIDNEY_L / KIDNEY_R / KIDNEY_TOTAL: tissue Kidney; for LIVER: tissue Liver
[1] = 30 mg/kg, 3 h, dose level Middle
[2] = 30 mg/kg, 6 h, dose level Middle
[3] = 30 mg/kg, 9 h, dose level Middle
[4] = 30 mg/kg, 24 h, dose level Middle
[5] = 100 mg/kg, 3 h, dose level High
[6] = 100 mg/kg, 6 h, dose level High
[7] = 100 mg/kg, 9 h, dose level High
[8] = 100 mg/kg, 24 h, dose level High

CN(C)CCCN1c2ccccc2CCc2ccccc21 [IMIPRAMINE]
TP (10 mg/kg, 24 h, dose level Low): 5.4 g/dL | gamma-GTP (10 mg/kg, 24 h, dose level Low): 1 IU/L | TERMINAL_BW [1]: 202.2 g | APTT [1]: 16.3 s | Bas [1]: 0.2% | Eos [1]: 1% | Fbg [1]: 313 mg/dL | Ht [1]: 42.7% | Lym [1]: 78.8% | MCHC [1]: 32.4% | MCV [1]: 65.8 fL | Mono [1]: 3% | PT [1]: 15.6 s | Plat [1]: 106.2 x10_4/uL | RBC [1]: 651.2 x10_4/ul | Ret [1]: 8.1% | WBC [1]: 75.9 x10_2/uL | KIDNEY_L [1]: 0.9 g | KIDNEY_R [1]: 0.9 g | KIDNEY_TOTAL [1]: 1.8 g | LIVER [1]: 9.5 g | ALT [1]: 43.4 IU/L | AST [1]: 70.2 IU/L | BUN [1]: 7.8 mg/dL | CRE [1]: 0.1 mg/dL | DBIL [1]: 0.008 mg/dL | GLC [1]: 191.6 mg/dL | IP [1]: 9.1 mg/dL | K [1]: 4 meq/L | LDH [1]: 88.4 IU/L | RALB [1]: 2.6 g/dL | TBIL [1]: 0.058 mg/dL | TC [1]: 79.2 mg/dL | TP [1]: 5.6 g/dL | gamma-GTP [1]: 1 IU/L | TERMINAL_BW [2]: 198.5 g | APTT [2]: 16.1 s | Bas [2]: 0% | Eos [2]: 1% | Fbg [2]: 311.6 mg/dL | Ht [2]: 41.9% | Lym [2]: 72.6% | MCHC [2]: 32.7% | MCV [2]: 63.9 fL | Mono [2]: 3.2% | PT [2]: 15.7 s | Plat [2]: 122.8 x10_4/uL | RBC [2]: 656 x10_4/ul | Ret [2]: 7.6% | WBC [2]: 81.3 x10_2/uL | KIDNEY_L [2]: 0.9 g | KIDNEY_R [2]: 0.9 g | KIDNEY_TOTAL [2]: 1.8 g | ALP [2]: 1270.6 IU/L | ALT [2]: 40.2 IU/L | AST [2]: 72.8 IU/L | BUN [2]: 6.2 mg/dL | CRE [2]: 0.1 mg/dL | DBIL [2]: 0.01 mg/dL | GLC [2]: 177.4 mg/dL | IP [2]: 9.8 mg/dL | K [2]: 4.1 meq/L | LDH [2]: 138.2 IU/L | RALB [2]: 2.5 g/dL | TBIL [2]: 0.062 mg/dL | TC [2]: 81.2 mg/dL | TP [2]: 5.4 g/dL | gamma-GTP [2]: 1.4 IU/L | TERMINAL_BW [3]: 197.4 g | APTT [3]: 15.4 s | Bas [3]: 0% | Eos [3]: 1% | Fbg [3]: 290.8 mg/dL | Ht [3]: 42.1% | Lym [3]: 78.4% | MCHC [3]: 32.5% | MCV [3]: 65.8 fL | Mono [3]: 1.8% | PT [3]: 15.8 s | Plat [3]: 111.8 x10_4/uL | RBC [3]: 639.4 x10_4/ul | Ret [3]: 7.8% | WBC [3]: 69.2 x10_2/uL | KIDNEY_L [3]: 0.9 g | KIDNEY_R [3]: 1 g | KIDNEY_TOTAL [3]: 1.9 g | LIVER [3]: 8.4 g | ALP [3]: 1205.4 IU/L | ALT [3]: 35.8 IU/L | AST [3]: 65.2 IU/L | BUN [3]: 5.8 mg/dL | CRE [3]: 0.1 mg/dL | DBIL [3]: 0.01 mg/dL | GLC [3]: 191 mg/dL | IP [3]: 9.6 mg/dL | K [3]: 4.1 meq/L | LDH [3]: 64.6 IU/L | PL [3]: 131.2 mg/dL | RALB [3]: 2.5 g/dL | TBIL [3]: 0.06 mg/dL | TC [3]: 68 mg/dL | TP [3]: 5.3 g/dL | gamma-GTP [3]: 0.8 IU/L | TERMINAL_BW [4]: 209.9 g | APTT [4]: 16.1 s | Bas [4]: 0% | Eos [4]: 1% | Fbg [4]: 298.2 mg/dL | Ht [4]: 41.7% | Lym [4]: 82% | MCHC [4]: 32.6% | MCV [4]: 64.6 fL | Mono [4]: 2.4% | PT [4]: 16.5 s | Plat [4]: 119.3 x10_4/uL | RBC [4]: 644.8 x10_4/ul | Ret [4]: 7.6% | WBC [4]: 75.5 x10_2/uL | KIDNEY_L [4]: 0.9 g | KIDNEY_R [4]: 0.9 g | KIDNEY_TOTAL [4]: 1.8 g | LIVER [4]: 9.2 g | ALP [4]: 1509.8 IU/L | ALT [4]: 45.6 IU/L | AST [4]: 69.6 IU/L | CRE [4]: 0.2 mg/dL | GLC [4]: 177 mg/dL | IP [4]: 7.8 mg/dL | K [4]: 4.2 meq/L | LDH [4]: 101.8 IU/L | RALB [4]: 2.7 g/dL | TBIL [4]: 0.06 mg/dL | TC [4]: 85.2 mg/dL | TP [4]: 5.6 g/dL | gamma-GTP [4]: 1 IU/L | TERMINAL_BW [5]: 202.6 g | APTT [5]: 16.3 s | Bas [5]: 0% | Eos [5]: 0.5% | Fbg [5]: 283.8 mg/dL | Ht [5]: 40.4% | Lym [5]: 72.5% | MCHC [5]: 32.8% | MCV [5]: 63.6 fL | Mono [5]: 3.2% | PT [5]: 15.8 s | Plat [5]: 110.1 x10_4/uL | RBC [5]: 635.8 x10_4/ul | Ret [5]: 8.6% | WBC [5]: 79.2 x10_2/uL | KIDNEY_L [5]: 0.9 g | KIDNEY_R [5]: 0.9 g | KIDNEY_TOTAL [5]: 1.8 g | LIVER [5]: 9.4 g | ALP [5]: 1336.2 IU/L | ALT [5]: 45 IU/L | AST [5]: 73.5 IU/L | BUN [5]: 6.8 mg/dL | CRE [5]: 0.1 mg/dL | DBIL [5]: 0.0125 mg/dL | GLC [5]: 190.8 mg/dL | IP [5]: 10 mg/dL | K [5]: 3.9 meq/L | LDH [5]: 61 IU/L | PL [5]: 138 mg/dL | RALB [5]: 2.5 g/dL | TBIL [5]: 0.07 mg/dL | TC [5]: 69 mg/dL | TP [5]: 5.3 g/dL | gamma-GTP [5]: 1.2 IU/L | TERMINAL_BW [6]: 200.3 g | APTT [6]: 15.9 s | Bas [6]: 0% | Eos [6]: 0.8% | Fbg [6]: 299.4 mg/dL | Ht [6]: 42.4% | Lym [6]: 71.2% | MCHC [6]: 32.2% | MCV [6]: 66.2 fL | Mono [6]: 3% | PT [6]: 15.8 s | Plat [6]: 108.9 x10_4/uL | RBC [6]: 641.6 x10_4/ul | Ret [6]: 8.3% | WBC [6]: 74.4 x10_2/uL | KIDNEY_L [6]: 0.9 g | KIDNEY_R [6]: 0.9 g | KIDNEY_TOTAL [6]: 1.8 g | ALP [6]: 1251.8 IU/L | ALT [6]: 37 IU/L | AST [6]: 64.2 IU/L | BUN [6]: 6.4 mg/dL | CRE [6]: 0.1 mg/dL | DBIL [6]: 0.01 mg/dL | GLC [6]: 182 mg/dL | IP [6]: 9.9 mg/dL | K [6]: 4 meq/L | LDH [6]: 62.8 IU/L | RALB [6]: 2.5 g/dL | TBIL [6]: 0.062 mg/dL | TC [6]: 83.8 mg/dL | TP [6]: 5.4 g/dL | gamma-GTP [6]: 1.2 IU/L | TERMINAL_BW [7]: 199.8 g | APTT [7]: 16.1 s | Bas [7]: 0.2% | Eos [7]: 0.8% | Fbg [7]: 309.4 mg/dL | Ht [7]: 42% | Lym [7]: 73% | MCHC [7]: 32.2% | MCV [7]: 66.8 fL | Mono [7]: 2.4% | PT [7]: 15.8 s | Plat [7]: 111.5 x10_4/uL | RBC [7]: 629.2 x10_4/ul | Ret [7]: 8.8% | WBC [7]: 70.8 x10_2/uL | KIDNEY_L [7]: 0.9 g | KIDNEY_R [7]: 0.9 g | KIDNEY_TOTAL [7]: 1.8 g | LIVER [7]: 8.3 g | ALP [7]: 1131.2 IU/L | ALT [7]: 35.6 IU/L | AST [7]: 63.6 IU/L | BUN [7]: 5.2 mg/dL | CRE [7]: 0.1 mg/dL | GLC [7]: 179.2 mg/dL | IP [7]: 10.2 mg/dL | K [7]: 4.1 meq/L | LDH [7]: 59.2 IU/L | RALB [7]: 2.5 g/dL | TBIL [7]: 0.056 mg/dL | TC [7]: 80.8 mg/dL | TP [7]: 5.4 g/dL | gamma-GTP [7]: 1 IU/L | TERMINAL_BW [8]: 198.2 g | APTT [8]: 16 s | Bas [8]: 0% | Eos [8]: 0.6% | Fbg [8]: 293.2 mg/dL | Ht [8]: 42.6% | Lym [8]: 82.6% | MCHC [8]: 32.4% | MCV [8]: 65.1 fL | Mono [8]: 2% | PT [8]: 16.6 s | Plat [8]: 116.4 x10_4/uL | RBC [8]: 655.2 x10_4/ul | Ret [8]: 7.3% | WBC [8]: 49 x10_2/uL | KIDNEY_L [8]: 0.9 g | KIDNEY_R [8]: 0.9 g | KIDNEY_TOTAL [8]: 1.8 g | LIVER [8]: 8.1 g | ALP [8]: 1350.6 IU/L | ALT [8]: 35.4 IU/L | AST [8]: 61 IU/L | BUN [8]: 12.8 mg/dL | CRE [8]: 0.2 mg/dL | DBIL [8]: 0.02 mg/dL | GLC [8]: 176.4 mg/dL | IP [8]: 8.2 mg/dL | K [8]: 4.5 meq/L | LDH [8]: 62.8 IU/L | PL [8]: 137.8 mg/dL | RALB [8]: 2.6 g/dL | TBIL [8]: 0.062 mg/dL | TC [8]: 83.2 mg/dL | TP [8]: 5.6 g/dL | gamma-GTP [8]: 1.2 IU/L
